In ChEMBL document CHEMBL5465560, “Selectivity Literature for EUbOPEN Chemogenomic Library” (2024):

Key:
[1] = target: Fibroblast growth factor receptor 2 (Homo sapiens) (UniProt P21802); assay: Selectivity interaction (Kinase panel (DSF assay)) EUB0001559a FGFR2
[2] = target: RAF proto-oncogene serine/threonine-protein kinase (Homo sapiens) (UniProt P04049); assay: Selectivity interaction (KinomeScan (DiscoverX)) EUB0000045b RAF1
[3] = target: T1, Mitogen-activated protein kinase kinase kinase 3 (Homo sapiens) (UniProt Q99759); assay: Selectivity interaction (KinomeScan (DiscoverX)) EUB0000045b MAP3K3
T1 sequence (whole entry): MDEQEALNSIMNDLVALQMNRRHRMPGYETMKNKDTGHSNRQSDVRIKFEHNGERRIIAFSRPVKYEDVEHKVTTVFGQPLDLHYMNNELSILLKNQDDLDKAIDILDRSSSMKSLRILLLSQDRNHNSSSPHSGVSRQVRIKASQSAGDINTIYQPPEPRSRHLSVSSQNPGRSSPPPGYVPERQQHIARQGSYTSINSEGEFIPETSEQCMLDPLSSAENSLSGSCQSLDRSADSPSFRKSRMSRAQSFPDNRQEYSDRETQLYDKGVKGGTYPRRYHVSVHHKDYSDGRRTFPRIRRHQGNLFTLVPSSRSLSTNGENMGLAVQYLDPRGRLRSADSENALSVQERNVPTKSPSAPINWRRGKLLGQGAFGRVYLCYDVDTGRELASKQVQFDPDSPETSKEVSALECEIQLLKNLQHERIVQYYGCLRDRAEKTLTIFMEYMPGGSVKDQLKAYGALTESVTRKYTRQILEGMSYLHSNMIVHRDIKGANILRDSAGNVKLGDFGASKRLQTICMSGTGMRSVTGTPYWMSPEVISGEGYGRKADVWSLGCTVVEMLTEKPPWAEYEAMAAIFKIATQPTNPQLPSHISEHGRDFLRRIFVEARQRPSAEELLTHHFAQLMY

[4] = target: T2, Calcium/calmodulin-dependent protein kinase type IV (Homo sapiens) (UniProt Q16566); assay: Selectivity interaction (Kinase panel (Z-LYTE Assay)) EUB0001632a CAMK4; conditions: at 10 µM
T2 sequence (whole entry): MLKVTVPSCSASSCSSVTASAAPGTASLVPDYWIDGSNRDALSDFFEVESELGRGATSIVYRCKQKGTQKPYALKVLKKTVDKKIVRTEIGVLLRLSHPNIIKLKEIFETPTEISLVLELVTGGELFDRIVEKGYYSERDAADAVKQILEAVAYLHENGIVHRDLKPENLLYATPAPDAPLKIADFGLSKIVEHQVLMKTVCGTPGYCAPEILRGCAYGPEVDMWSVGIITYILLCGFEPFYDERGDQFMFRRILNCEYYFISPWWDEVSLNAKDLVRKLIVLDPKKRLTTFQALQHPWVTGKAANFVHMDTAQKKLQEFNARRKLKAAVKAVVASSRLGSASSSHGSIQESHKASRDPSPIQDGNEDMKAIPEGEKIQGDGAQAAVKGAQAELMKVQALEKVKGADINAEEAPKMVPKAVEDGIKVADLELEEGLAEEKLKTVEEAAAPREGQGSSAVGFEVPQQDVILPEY

[5] = test system: T3, Receptor-type tyrosine-protein kinase FLT3 (Homo sapiens), P36888 [D835Y]; assay: (§1) Selectivity interaction (ProQinase) EUB0000171b FLT3
T3 sequence (whole entry): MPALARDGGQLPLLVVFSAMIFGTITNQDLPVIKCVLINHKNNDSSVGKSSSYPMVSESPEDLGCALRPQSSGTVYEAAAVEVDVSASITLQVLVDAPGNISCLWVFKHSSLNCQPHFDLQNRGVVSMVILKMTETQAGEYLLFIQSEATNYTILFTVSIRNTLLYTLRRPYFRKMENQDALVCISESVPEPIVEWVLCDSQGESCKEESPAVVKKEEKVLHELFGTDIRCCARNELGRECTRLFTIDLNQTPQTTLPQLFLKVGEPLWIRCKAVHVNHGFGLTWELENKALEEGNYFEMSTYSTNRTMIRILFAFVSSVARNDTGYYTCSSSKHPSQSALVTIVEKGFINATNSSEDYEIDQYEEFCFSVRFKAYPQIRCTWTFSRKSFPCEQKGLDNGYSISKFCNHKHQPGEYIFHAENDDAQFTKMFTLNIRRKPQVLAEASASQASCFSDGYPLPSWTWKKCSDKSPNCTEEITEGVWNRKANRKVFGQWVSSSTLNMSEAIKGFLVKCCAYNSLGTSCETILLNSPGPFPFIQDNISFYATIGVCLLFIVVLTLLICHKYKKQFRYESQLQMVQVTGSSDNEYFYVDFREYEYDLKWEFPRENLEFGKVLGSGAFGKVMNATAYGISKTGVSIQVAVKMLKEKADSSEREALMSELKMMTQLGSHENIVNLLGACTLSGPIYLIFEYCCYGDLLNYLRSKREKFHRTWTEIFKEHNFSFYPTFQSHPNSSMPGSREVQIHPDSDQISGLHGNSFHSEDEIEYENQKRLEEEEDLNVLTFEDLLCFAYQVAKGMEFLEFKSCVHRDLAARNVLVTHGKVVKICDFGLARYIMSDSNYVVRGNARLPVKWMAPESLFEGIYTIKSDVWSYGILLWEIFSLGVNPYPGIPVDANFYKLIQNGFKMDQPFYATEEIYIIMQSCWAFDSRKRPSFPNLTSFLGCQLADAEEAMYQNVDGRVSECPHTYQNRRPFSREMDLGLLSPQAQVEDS

[6] = target: Receptor-type tyrosine-protein kinase FLT3 (Homo sapiens) (UniProt P36888); assay: as §1
[7] = target: Death-associated protein kinase 1 (Homo sapiens, UniProt P53355); assay: Selectivity interaction (KinomeScan (DiscoverX)) EUB0000607a DAPK1; conditions: at 10 µM
Chain of Death-associated protein kinase 1 (P53355 whole entry, looked up): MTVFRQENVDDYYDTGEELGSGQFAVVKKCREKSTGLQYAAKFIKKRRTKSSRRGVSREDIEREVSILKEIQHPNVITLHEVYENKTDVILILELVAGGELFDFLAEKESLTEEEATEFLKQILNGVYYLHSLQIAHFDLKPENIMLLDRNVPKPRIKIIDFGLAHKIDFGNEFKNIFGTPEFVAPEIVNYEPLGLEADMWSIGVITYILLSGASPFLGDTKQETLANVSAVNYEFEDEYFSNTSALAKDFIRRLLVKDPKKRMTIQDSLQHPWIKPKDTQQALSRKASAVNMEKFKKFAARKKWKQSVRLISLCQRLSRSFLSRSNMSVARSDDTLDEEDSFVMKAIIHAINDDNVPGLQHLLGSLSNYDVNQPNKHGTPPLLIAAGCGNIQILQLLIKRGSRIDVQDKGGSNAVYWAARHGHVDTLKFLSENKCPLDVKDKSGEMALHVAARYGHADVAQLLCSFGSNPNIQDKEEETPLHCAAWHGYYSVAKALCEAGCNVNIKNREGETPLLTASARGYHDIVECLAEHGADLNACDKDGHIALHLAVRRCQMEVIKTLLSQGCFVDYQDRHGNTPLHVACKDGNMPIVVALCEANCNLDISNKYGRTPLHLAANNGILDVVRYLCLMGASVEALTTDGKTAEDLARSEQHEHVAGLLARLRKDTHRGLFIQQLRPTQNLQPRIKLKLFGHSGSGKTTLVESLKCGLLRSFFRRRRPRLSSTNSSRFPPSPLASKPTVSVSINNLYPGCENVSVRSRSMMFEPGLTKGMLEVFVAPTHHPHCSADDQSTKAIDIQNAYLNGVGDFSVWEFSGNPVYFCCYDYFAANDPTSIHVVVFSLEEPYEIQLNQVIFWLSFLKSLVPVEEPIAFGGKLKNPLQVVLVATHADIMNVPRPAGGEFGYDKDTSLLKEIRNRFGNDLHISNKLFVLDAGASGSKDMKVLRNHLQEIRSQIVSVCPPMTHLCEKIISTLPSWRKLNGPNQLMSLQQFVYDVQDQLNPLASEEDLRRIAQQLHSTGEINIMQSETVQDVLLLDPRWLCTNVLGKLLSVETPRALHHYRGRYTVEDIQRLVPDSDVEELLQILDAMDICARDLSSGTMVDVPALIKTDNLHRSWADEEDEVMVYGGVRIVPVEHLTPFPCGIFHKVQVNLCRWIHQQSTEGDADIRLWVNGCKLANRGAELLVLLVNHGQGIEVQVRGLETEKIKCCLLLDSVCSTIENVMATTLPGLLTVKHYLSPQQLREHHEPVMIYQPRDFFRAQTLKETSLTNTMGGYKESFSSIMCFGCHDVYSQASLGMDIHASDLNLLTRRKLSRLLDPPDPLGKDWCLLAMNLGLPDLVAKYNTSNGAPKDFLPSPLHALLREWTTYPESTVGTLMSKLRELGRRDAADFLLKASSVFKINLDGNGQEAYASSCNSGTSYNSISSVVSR

Chain of RAF proto-oncogene serine/threonine-protein kinase (Homo sapiens) (P04049 whole entry): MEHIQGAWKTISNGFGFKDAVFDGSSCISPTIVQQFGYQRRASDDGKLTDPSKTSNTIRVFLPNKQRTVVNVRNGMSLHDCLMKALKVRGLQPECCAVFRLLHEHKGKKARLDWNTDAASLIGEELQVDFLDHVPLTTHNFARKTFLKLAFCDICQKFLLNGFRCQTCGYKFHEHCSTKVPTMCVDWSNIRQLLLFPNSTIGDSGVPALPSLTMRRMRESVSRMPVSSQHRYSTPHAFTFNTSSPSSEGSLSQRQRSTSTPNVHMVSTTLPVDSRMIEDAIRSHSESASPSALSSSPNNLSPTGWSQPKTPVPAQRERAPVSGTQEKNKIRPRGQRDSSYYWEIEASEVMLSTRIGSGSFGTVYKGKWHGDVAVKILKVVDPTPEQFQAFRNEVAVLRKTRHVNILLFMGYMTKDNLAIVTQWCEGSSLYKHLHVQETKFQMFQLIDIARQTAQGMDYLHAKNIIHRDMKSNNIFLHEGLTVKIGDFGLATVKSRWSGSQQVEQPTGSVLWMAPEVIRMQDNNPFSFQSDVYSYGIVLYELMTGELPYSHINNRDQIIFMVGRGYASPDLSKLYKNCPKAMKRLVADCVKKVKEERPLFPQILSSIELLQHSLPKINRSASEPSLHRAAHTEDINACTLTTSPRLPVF
Chain of Fibroblast growth factor receptor 2 (Homo sapiens) (P21802 22-821 limits assumed): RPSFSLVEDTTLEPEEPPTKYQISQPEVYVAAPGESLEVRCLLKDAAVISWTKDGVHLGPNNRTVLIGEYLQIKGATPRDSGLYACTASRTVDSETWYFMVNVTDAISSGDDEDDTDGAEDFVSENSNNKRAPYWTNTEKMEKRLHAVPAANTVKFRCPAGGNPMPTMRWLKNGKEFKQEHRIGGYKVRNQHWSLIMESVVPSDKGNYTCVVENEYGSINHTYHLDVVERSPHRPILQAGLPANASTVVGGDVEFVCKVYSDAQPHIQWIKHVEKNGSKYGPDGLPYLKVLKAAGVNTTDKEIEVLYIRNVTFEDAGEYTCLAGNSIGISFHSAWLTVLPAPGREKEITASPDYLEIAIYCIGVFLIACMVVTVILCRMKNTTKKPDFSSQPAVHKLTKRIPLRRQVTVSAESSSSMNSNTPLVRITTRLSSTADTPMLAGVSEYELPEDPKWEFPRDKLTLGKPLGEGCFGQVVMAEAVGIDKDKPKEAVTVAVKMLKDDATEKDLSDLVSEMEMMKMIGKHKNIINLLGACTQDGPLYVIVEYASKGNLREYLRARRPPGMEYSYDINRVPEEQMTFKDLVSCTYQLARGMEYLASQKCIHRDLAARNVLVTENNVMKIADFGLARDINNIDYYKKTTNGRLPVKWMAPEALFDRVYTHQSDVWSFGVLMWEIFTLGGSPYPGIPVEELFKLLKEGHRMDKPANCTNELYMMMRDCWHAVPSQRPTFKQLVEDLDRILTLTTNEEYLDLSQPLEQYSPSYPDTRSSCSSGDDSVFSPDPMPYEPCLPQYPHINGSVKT

For `CN(C(=O)c1cnn2cccnc12)c1cc2c(cc1N1CCOCC1)C(=O)N(C[C@@H](F)C(C)(C)O)C2`, the dTM [1] was 0.3 K.

Work on `C=CC(=O)Nc1cc(-n2c(=O)ccc3cnc4ccc(-c5ccc(NS(C)(=O)=O)cc5)cc4c32)ccc1C` yielded a % of control ([2]; at 1 µM) of 100%, a % of control ([2]; at 10 µM) of 100% and a % of control ([3]; at 1 µM) of 100%. It also gave a % of control ([3]; at 10 µM) of 79%.

`Cn1cc(-n2cnc3c(NCc4nc5cc(Cl)c(Cl)cc5[nH]4)nc(N4CCOCC4)nc32)cn1` showed a % of control [4] of -4.99%.

With `C=CC(=O)Nc1cccc(C(=O)Nc2ccc(Nc3cc(-c4[nH]c(SC)nc4C)ccn3)cc2)c1` the % of control ([5]; at 1 µM) was 65%, the % of control ([5]; at 5 µM) was 32% and the % of control ([6]; at 1 µM) was 78%. The % of control ([6]; at 5 µM) was 49%.

Compound `CNC(=O)Nc1ccc(-c2nc(N3CC4CCC(C3)O4)c3cnn(C4CCC5(CC4)OCCO5)c3n2)cc1` has a % of control [7] of 12%.
